In patent publication US10501748B2, “Methods and compositions for integration of an exogenous sequence within the genome of plants” (Dow AgroSciences LLC, priority 2013, dated 2019):

Assays:
[1] = tested on: somatic embryogenic callus of wild-type cv. Bobwhite MPB26RH; test: basal tolerance to sulfometuron methyl at the plant regeneration stage; assay type: cell-based, Triticum aestivum; conditions: wild-type donor wheat line; 2000 nM; 2 weeks; compared to untreated samples
Protocol: The basal tolerance of the wild-type donor wheat line to sulfometuron methyl at the plant regeneration stage was determined as follows: scutella of immature zygotic embryos from the donor wheat line were isolated and placed in 10 cm petri dishes containing CIM medium. Then SEC was allowed to form by incubating at 24° C. in the dark for 4 weeks. The SEC was transferred to 10 cm petri dishes containing DRM medium supplemented with 0, 100, 500, 1000, 1500, 2000, 2500 and 3000 nM sulfometuron methyl, respectively. Twenty CIM were placed in each petri dish. A total of 60 CIM were tested for basal tolerance response at each sulfometuron methyl concentration. After incubation for 2 weeks at 24° C. under a 16/8 (light/dark) hour photoperiod in a growth room, the regeneration response was recorded.

[2] = tested on: regenerated plants of wild-type cv. Bobwhite MPB26RH; test: basal tolerance to sulfometuron methyl at the plant rooting stage; assay type: in vivo, Triticum aestivum; conditions: wild-type donor wheat line; 3 weeks
Protocol: The basal tolerance of the wild-type donor wheat line to sulfometuron methyl at the plant rooting stage was determined as follows: scutella of immature zygotic embryos were isolated and placed in 10 cm petri dishes containing CIM medium. Then SEC was allowed to form by incubating at 24° C. in the dark for 4 weeks. The SEC was transferred to 10 cm petri dishes containing DRM medium and incubated for 2 weeks at 24° C. under a 16/8 (light/dark) hour photoperiod to allow plant regeneration to take place. Regenerated plants were transferred to 10 cm petri dishes containing RM medium supplemented with 0, 100, 200, 250, 300, 400, 500, 1000 and 2000 nM sulfometuron methyl, respectively. Ten regenerated plants were placed in each petri dish. A total of 30 regenerated plants were tested for basal tolerance response at each sulfometuron methyl concentration. After incubation for 3 weeks at 24° C. under a 16/8 (light/dark) hour photoperiod in a growth room, the root formation response was recorded.

[3] = tested on: scutella of wild-type cv. Bobwhite MPB26RH (P197/P197); test: basal tolerance to sulfometuron methyl at the callus induction stage; assay type: cell-based, Triticum aestivum; conditions: 100 nM, 4 weeks, compared to untreated samples
Protocol: A series of experiments were performed to determine optimal selection conditions for regenerating wheat plants expressing the AHAS (P197S) mutation conferring tolerance to sulfonylurea class herbicides. These experiments were based on testing the basal tolerance of the wild-type donor wheat line cv. Bobwhite MPB26RH (P197/P197 genotype, which confers susceptibility to sulfonylureas) at the callus induction, plant regeneration and rooting stages of an established wheat transformation system. Similar experiments were performed to determine the basal tolerance of transgenic cv. Bobwhite MPB26RH events that had randomly integrated T-DNA expressing the AHAS (P197S) mutation, which confers tolerance to sulfonylurea selection agents.
The basal tolerance of the wild-type donor wheat line to sulfometuron methyl at the callus induction stage was determined as follows: scutella of immature zygotic embryos were isolated, as previously described in Example 4, and placed in 10 cm petri dishes containing CIM medium supplemented with 0, 100, 500, 1000, 1500 and 2000 nM sulfometuron methyl, respectively. Twenty scutella were placed in each petri dish. A total of 60 scutella were tested at each sulfometuron methyl concentration. After incubation at 24° C. in the dark for 4 weeks, the amount of somatic embryogenic callus formation (SEC) at each sulfometuron methyl concentration was recorded. […]

[4] = tested on: transgenic wheat events with low-copy T-DNA expressing AHAS (P197S); test: basal tolerance to sulfometuron methyl at the rooting stage of transgenic AHAS (P197S) events; assay type: in vivo, Triticum aestivum; conditions: transgenic AHAS (P197S) events from pDAS000164; 400-600 nM; 2 weeks
Protocol: The basal tolerance of transgenic wheat events with randomly integrated, low-copy (≤3) T-DNA expressing the AHAS (P197S) mutation to sulfometuron methyl from pDAS000164 at the plant rooting stage was determined as follows: four independent transgenic events were randomly selected and multiplied in vitro by sub-culturing on multiplication medium. Following multiplication, plants for each event were transferred to 10 cm petri dishes containing RM medium supplemented with 0, 400, 450, 500, 550 and 600 nM sulfometuron methyl, respectively. Four plants (one from each of the four events) were placed in each petri dish. A total of 3 plants per event were tested for basal tolerance at each sulfometuron methyl concentration. After incubation for 2 weeks at 24° C. under a 16/8 (light/dark) hour photoperiod in a growth room, the root formation response was recorded.

[5] = tested on: protoplasts of SEC-derived cell suspension culture of cv. Bobwhite MPB26RH; test: basal tolerance to BASTA of protoplast agarose bead-type cultures (calli growth); assay type: cell-based, Triticum aestivum; conditions: 2 weeks
Text: BASTA® selection conditions are optimized using protoplasts derived from somatic embryogenic callus (SEC)-derived cell suspension culture of the wheat line cv. Bobwhite MPB26RH. While protoplasts derived from Bobwhite MPB26RH are non-totipotent (i.e., cannot be used to regenerate entire plants), the selection conditions established for enriching the events that express the PAT gene are expected to be transferable to any protoplast-based transformation system based on a totipotent wheat genotype. The experiments are conducted, and the basal tolerance of the wild-type donor wheat line cv. Bobwhite MPB26RH to BASTA® is established. The use of BASTA® selection conditions stronger than basal tolerance are identified and used to select for transformed cells expressing the PAT gene.
Protoplasts are isolated from an established SEC-derived cell suspension culture and used to establish agarose bead-types cultures, as described previously. The basal tolerance of wheat line cv. Bobwhite MPB26RH to BASTA® is determined by incubating the agarose bead-type cultures in media supplemented with 0, 0.5, 2.5, 5, 7.5, 10, 20, 30, 40 and 50 mg/L BASTA® and assessing the rate of calli growth after 2 weeks. The BASTA® concentrations (e.g., higher than 20 mg/L) that severely impeded calli development are optimal for enriching and selecting wheat cells having the PAT gene.

Row | SMILES | reduction of plant regeneration [1] | concentrations at which root formation was severely inhibited [2] | reduction of SEC formation [3] | root formation compared to untreated controls [4] | concentrations that severely impeded calli development [5]
1 | COC(=O)c1ccccc1S(=O)(=O)NC(=O)Nc1nc(C)cc(C)n1 [sulfometuron methyl] | about 80% | higher than 400 nM | about 70% | not restricted | 
2 | CP(=O)(O)CCC(N)C(=O)O (racemic) [BASTA, DL-Phosphinothricin] |  |  |  |  | higher than 20 mg/L
